Measured values as given in article PMC6018403 (Frontiers in Pharmacology, 2018).
Read-outs that look alike come from different tables or passages of the source.

What was measured:
[1] = Multi-component pharmacokinetic study of GQD, GQD-GC and single herb extracts in rats (plasma, LC/MS/MS); format: in vivo, Sprague-Dawley rats; conditions: for AUC(0-t) / Cmax / half-life / Tmax: male, Sprague-Dawley, rat; for AUC(0-t): po, read-out: AUClast; for Cmax: read-out: Cmax; for half-life: read-out: T1/2 (converted); for Tmax: read-out: Tmax
Summary of the method: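 Male Sprague-Dawley rats (220–250 g, n = 10 per group) dosed orally with GQD, GQD-GC (1.0 g crude drug/mL) or single-herb decoctions. Plasma analytes quantified by LC/MS/MS in positive-ESI SRM mode. Cmax and Tmax taken from measured data, other parameters by non-compartmental or compartmental analysis; mean ± SD.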

[2] = in vivo; parameters: species or system Sprague-Dawley rats; conditions: male, Sprague-Dawley, rat, po
Protocol: For the PK study of berberine and glycyrrhizic acid, rats were randomly divided into four groups (n = 8 for each group) before oral administration. Two groups were respectively treated with 59.4 mg/kg of berberine and 84.8 mg/kg of glycyrrhizic acid; the third group was treated with 59.4 mg/kg of berberine and 2.36 g/kg of licorice water decoction (0.5 g/mL); and the last group received 59.4 mg/kg of berberine and 84.8 mg/kg of glycyrrhizic acid. The dosage of single compounds were calculated according to their contents in the administrated GQD extract. Sample collection were the same as described for GQD. […] The plasma samples were stored at −80°C. Samples were prepared for LC/MS/MS analysis as described in our previous study (Qiao et al., [2012]), as described in Supplemental Data. LC/MS/MS calibration and quantitation data were processed with Xcalibur 2.0.7 software (ThermoFisher). The maximal plasma concentrations (Cmax) and their time of occurrence (Tmax) were obtained directly from the measured data. Other pharmacokinetic parameters were calculated by non-compartment or compartment models using WinNonlin® software (v6.1, Pharsight). Unless otherwise stated, results were expressed as the mean ± SD. Statistical significance in differences of the means was determined by Student's t–test, with a significance level of P < 0.05.

[3] = plasma, 18.9 g/kg, GQD group: rats, oral GQD extract 18.9 g/kg, plasma
[4] = GQD group: rats, oral GQD extract 18.9 g/kg, plasma
[5] = GQD-GC group (GQD without Gan-Cao): rats, oral 16.5 g/kg, plasma
[6] = HL (Huang-Lian) group: rats, oral extract 3.54 g/kg, plasma
[7] = GC (Gan-Cao) group: rats, oral extract 2.36 g/kg, plasma

## COc1ccc2cc3[n+](cc2c1OC)CCc1cc2c(cc1-3)OCO2 [Compound 24, berberine]
[1]; plasma, 3.54 g/kg, HL (Huang-Lian) group: rats, oral extract 3.54 g/kg, plasma
  AUC(0-t): 0.198 ± 0.0769 µg·h/mL
[1]; plasma, 3.54 g/kg, Huang-Lian group: rats, oral 3.54 g/kg, plasma
  AUC(0-t): 0.198 ± 0.0769 µg·h/mL
[1]; plasma, 16.5 g/kg, GQD-GC group (GQD without Gan-Cao): rats, oral 16.5 g/kg, plasma
  AUC(0-t): 0.149 ± 0.0708 µg·h/mL
[1]; plasma, 16.5 g/kg, GQD−GC group: rats, oral 16.5 g/kg, plasma
  AUC(0-t): 0.149 ± 0.0708 µg·h/mL
[1]; [3]
  AUC(0-t): 0.389 ± 0.187 µg·h/mL
[1]; [4]
  Cmax: 0.0282 ± 0.0175 µg/mL
  half-life: 11.4 ± 2.78 h
  Tmax: 0.39 ± 0.76 h
[1]; [5]
  Cmax: 0.0323 ± 0.0132 µg/mL
  half-life: 7.09 ± 0.65 h
  Tmax: 0.35 ± 0.23 h
[1]; [6]
  Cmax: 0.0767 ± 0.0279 µg/mL
  half-life: 9.3 ± 1.67 h
  Tmax: 0.29 ± 1.12 h
[1]; rats, oral, GQD vs Huang-Lian
  increase of AUClast in GQD group compared with the Huang-Lian group: 96.5%
[1]; rats, oral, abstract
  improvement of plasma concentrations by GQD (vs Huang-Lian): at least 30%
[2]
  increase of AUClast of berberine by GLY: around 6 folds
[2]; 59.4 mg/kg
  Cmax: 0.0122 ± 0.00485 µg/mL
  Cmax of berberine: 0.11712 ± 0.09022 µg/mL
  T1/2 of berberine: 8.47 ± 2.90 h
[2]; 59.4 mg/kg, T1/2 of berberine
  half-life: 7.53 ± 1.65 h

## CC1(C)[C@@H](O[C@H]2O[C@H](C(=O)O)[C@@H](O)[C@H](O)[C@H]2O[C@@H]2O[C@H](C(=O)O)[C@@H](O)[C@H](O)[C@H]2O)CC[C@]2(C)[C@H]3C(=O)C=C4[C@@H]5C[C@@](C)(C(=O)O)CC[C@]5(C)CC[C@@]4(C)[C@]3(C)CC[C@@H]12 [Compound 36, glycyrrhizic acid]
[1]; [7]
  AUClast: 0.79047 ± 0.36254 µg·h/mL
  Cmax: 0.0464 ± 0.00089 µg/mL
  half-life: 4.08 ± 1.07 h
  Tmax: 5.89 ± 0.98 h
[1]; [3]
  AUC(0-t): 0.871 ± 0.571 µg·h/mL
[1]; plasma, 18.9 g/kg, GQD group: rats, oral GQD 18.9 g/kg (1.5-fold of clinical dosage), plasma
  AUC(0-t): 0.871 ± 0.571 µg·h/mL
[1]; [4]
  Cmax: 0.0556 ± 0.0143 µg/mL
  half-life: 4.78 ± 9.98 h
  Tmax: 6.9 ± 0.28 h
[1]; rats, oral
  change of pharmacokinetics by GQD compared with Gan-Cao: hardly changed
